In patent US9051311B2, “Sulfamide sodium channel inhibitors” (AMGEN INC., priority 2012, dated 2015):
Structures can show the parent of a compound that is named as a salt.

Columns and labels:
[1] = target: T1, Nav 1.7 (Homo sapiens (Human), UniProt Q15858); experiment: Nav 1.7 IonWorks Quattro (IWQ) in vitro assay, population patch-clamp; assay type: cell-based; details: 293 cells stably transfected with Nav 1.7; block at 26th pulse to −20 mV;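 also: cells held at −110 mV for 3 s, then 26 pulses of 150 ms at 5 Hz, leak-corrected peak current, percent block measured before and after compound, 3–8 min exposure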
Method: (§1) Nav 1.7 and Nav 1.5 Ion Works Quattro (IWQ) In Vitro Assays
(§2) 293 cells stably transfected with either Nav 1.7 or with Nav 1.5 were recorded in population patch-clamp mode with the IonWorks® Quattro automated electrophysiology system in accordance with the manufacturer's specifications (Molecular Devices, LLC, Sunnyvale, Calif.). Sodium channel currents were measured in response to a train of depolarizations that induced successively greater inactivation.
(§3) Cells were held at −110 mV for three seconds (Nav 1.7) or half a second (Nav 1.5) from a holding voltage of −15 mV, then put through a series of 26 pulses of 150 msec duration to −20 mV at a frequency of 5 Hz. Cells were then left unclamped for a period of 3 to 8 minutes while a single concentration of test compound was added. Cells were then reclamped and put through the same voltage protocol. Current at the end of the 26th pulse to −20 mV was subtracted from the peak current evoked by the 26th pulse to −20 mV to correct for leak current. Percent block was calculated for each concentration in duplicate, and IC50 curves were fitted to percent block as a function of concentration.

[2] = target: T1, Nav 1.7; experiment: Nav 1.7 in vitro PatchExpress (PX) assay, whole cell voltage clamp; assay type: cell-based; details: 293 cells stably transfected with human Nav1.7; partially inactivated state (20 to 50% inactivation)
Method: Nav 1.7 In Vitro PatchExpress (PX) Assay
293 cells stably transfected with human Nav1.7 were recorded in whole cell voltage clamp mode with the PatchXpress automated electrophysiology system (Molecular Devices, LLC, Sunnyvale, Calif.). Compound effects were measured on a partially inactivated state of the sodium channel. Cells were clamped to a holding potential yielding 20 to 50% inactivation. To elicit sodium current, channels were activated by pulsing to −10 mV for 20 msec. This voltage protocol was repeated at a rate of 0.1 Hz throughout the experiment. A single concentration of test compound was applied to cells for a duration of 3 minutes. Peak sodium current was measured at the end of the compound addition period to determine percent inhibition.

[3] = target: T2, Nav 1.5 (Homo sapiens (Human), UniProt Q14524); experiment: Nav 1.5 IonWorks Quattro (IWQ) in vitro assay, population patch-clamp; details: read-out: Nav 1.5 (IWQ) IC50; 293 cells stably transfected with Nav 1.5; block at 26th pulse to −20 mV;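 also: HEK293 cells stably expressing Nav1.5, sodium current at the 26th of 26 pulses to −20 mV (150 ms, 5 Hz) after compound versus before, leak-corrected, 3–8 min exposure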
Method: as §1, §2, §3

[4] = target: T2, Nav 1.5; experiment: cell-based
Method: as §1, §2, §3

T1 sequence (Q15858 whole entry): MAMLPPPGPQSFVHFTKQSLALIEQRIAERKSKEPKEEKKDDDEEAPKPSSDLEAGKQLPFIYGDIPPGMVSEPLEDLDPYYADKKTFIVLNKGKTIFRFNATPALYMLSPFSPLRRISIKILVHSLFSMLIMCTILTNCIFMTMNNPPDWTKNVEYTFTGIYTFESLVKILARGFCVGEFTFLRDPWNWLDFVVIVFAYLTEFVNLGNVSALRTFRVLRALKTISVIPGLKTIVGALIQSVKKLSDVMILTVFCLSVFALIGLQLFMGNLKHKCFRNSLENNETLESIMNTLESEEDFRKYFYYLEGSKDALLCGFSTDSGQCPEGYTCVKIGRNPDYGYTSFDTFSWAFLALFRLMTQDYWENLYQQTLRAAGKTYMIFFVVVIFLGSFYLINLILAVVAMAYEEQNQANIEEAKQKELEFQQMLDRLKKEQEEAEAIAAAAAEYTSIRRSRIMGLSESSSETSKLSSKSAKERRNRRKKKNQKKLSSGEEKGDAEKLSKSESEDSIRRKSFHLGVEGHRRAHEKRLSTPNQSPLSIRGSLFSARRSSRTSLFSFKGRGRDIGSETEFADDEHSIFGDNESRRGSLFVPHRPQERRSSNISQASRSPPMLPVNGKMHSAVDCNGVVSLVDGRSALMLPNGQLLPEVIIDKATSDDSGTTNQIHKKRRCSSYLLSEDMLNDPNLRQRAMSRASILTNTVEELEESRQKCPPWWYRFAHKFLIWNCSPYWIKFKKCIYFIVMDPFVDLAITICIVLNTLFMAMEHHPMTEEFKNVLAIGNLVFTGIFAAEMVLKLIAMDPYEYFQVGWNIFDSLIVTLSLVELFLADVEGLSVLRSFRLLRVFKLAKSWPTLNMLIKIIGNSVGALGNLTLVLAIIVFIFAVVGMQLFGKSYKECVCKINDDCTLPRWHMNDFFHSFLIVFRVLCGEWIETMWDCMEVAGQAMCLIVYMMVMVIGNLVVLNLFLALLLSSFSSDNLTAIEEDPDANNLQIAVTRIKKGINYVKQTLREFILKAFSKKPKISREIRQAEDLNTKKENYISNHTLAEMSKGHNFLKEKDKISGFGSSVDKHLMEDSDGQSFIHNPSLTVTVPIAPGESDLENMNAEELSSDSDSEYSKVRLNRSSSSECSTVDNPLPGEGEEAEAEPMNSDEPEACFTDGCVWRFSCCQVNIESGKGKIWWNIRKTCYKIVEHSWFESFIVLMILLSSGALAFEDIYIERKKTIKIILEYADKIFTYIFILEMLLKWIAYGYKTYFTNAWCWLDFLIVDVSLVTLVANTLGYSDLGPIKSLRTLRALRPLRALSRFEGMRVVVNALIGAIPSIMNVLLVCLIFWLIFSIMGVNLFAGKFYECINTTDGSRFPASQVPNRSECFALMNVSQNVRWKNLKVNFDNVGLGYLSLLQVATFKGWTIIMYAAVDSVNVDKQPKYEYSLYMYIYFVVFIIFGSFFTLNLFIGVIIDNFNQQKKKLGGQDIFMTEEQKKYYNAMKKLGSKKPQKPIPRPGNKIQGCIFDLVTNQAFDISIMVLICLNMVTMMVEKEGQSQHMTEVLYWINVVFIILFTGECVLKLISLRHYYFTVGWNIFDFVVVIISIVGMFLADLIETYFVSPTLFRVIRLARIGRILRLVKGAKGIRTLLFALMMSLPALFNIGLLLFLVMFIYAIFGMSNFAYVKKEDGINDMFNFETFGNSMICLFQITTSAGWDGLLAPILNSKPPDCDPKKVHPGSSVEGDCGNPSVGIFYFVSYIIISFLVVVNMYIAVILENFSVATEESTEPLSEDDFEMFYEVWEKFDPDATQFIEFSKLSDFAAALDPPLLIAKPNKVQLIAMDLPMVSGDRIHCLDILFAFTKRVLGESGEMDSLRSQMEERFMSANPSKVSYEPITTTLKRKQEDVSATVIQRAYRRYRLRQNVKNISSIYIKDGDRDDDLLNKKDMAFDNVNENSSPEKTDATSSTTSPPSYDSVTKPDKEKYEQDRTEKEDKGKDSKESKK
T2 sequence (Q14524 whole entry): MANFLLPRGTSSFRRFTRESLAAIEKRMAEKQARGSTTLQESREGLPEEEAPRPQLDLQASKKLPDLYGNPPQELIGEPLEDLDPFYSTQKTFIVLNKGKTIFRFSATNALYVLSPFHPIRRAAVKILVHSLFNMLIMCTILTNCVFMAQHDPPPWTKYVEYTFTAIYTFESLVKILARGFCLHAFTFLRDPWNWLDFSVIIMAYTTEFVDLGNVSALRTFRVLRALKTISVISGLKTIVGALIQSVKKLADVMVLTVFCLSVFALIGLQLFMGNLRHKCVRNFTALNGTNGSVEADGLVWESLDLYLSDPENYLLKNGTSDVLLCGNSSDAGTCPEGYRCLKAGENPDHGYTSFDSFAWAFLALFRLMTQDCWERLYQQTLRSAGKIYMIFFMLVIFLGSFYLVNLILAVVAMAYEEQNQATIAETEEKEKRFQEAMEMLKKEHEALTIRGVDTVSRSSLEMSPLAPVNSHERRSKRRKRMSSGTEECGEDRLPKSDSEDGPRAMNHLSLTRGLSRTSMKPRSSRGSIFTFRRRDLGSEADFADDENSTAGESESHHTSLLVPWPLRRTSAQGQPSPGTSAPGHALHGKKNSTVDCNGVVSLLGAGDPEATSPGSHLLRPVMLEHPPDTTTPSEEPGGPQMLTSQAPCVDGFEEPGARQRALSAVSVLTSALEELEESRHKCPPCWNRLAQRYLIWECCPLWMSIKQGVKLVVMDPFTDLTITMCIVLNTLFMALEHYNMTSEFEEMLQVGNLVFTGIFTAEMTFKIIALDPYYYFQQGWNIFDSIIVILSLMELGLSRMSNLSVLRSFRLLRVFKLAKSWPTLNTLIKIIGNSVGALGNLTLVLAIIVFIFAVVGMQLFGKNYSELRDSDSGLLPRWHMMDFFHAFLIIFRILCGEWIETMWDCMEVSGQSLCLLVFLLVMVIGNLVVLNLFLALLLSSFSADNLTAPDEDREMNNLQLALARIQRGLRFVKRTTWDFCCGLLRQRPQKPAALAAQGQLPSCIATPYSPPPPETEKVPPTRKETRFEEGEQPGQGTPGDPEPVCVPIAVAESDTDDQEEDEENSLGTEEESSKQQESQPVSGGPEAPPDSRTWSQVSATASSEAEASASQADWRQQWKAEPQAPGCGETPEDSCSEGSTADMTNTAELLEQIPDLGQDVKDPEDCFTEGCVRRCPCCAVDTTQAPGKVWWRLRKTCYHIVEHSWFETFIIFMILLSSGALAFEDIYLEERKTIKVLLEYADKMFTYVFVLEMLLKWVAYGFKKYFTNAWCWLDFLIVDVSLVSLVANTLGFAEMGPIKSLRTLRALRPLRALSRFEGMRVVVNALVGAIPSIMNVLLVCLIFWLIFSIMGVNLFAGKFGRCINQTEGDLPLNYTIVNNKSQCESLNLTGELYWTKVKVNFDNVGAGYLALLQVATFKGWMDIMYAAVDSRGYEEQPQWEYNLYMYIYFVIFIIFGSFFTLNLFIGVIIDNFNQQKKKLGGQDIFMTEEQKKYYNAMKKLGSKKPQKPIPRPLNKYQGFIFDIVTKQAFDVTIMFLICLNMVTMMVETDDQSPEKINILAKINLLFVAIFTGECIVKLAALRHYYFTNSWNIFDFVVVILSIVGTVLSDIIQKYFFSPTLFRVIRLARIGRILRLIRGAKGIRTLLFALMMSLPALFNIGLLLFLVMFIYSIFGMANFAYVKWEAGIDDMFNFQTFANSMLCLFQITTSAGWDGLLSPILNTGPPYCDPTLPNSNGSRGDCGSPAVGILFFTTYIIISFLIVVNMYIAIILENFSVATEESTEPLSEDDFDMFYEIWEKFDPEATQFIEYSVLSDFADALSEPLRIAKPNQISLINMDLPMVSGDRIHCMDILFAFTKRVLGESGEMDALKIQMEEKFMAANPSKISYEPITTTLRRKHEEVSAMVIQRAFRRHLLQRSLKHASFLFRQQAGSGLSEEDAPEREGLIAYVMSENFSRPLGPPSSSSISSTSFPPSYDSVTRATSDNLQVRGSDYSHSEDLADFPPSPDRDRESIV

Row | Structure (SMILES) | IC50 [1] [µM] | IC50 [2] [µM] | IC50 [3] [µM] | IC50 [4] [µM]
1 | CC(C)(C)OC(=O)N1CC=C(c2cc(C(F)(F)F)ccc2-c2cccc3c2CCN(S(=O)(=O)Nc2ncns2)C3)CC1 [Example 5, tert-Butyl 4-(2-(2-(N-(1,2,4-thiadiazol-5-yl)sulfamoyl)-1,2,3,4-tetrahydroisoquinolin-5-yl)-5-(trifluoromethyl)phenyl)-5,6-dihydropyridine-1(2H)-carboxylate] | 1.03 | 1.7 | 5.63 | 
2 | O=S(=O)(Nc1ncns1)N1CCc2c(cccc2-c2ccc(C(F)(F)F)cc2C2=CCNCC2)C1 [Example 6, 5-(2-(1,2,3,6-Tetrahydropyridin-4-yl)-4-(trifluoromethyl)phenyl)-N-(1,2,4-thiadiazol-5-yl)-3,4-dihydroisoquinoline-2(1H)-sulfonamide hydrochloride] | 0.0221 | 0.03 | > 10 | 
3 | O=S(=O)(Nc1ncns1)N1CCc2c(cccc2-c2ccc(Cl)cc2F)C1 [Example 11, 5-(4-Chloro-2-fluorophenyl)-N-(1,2,4-thiadiazol-5-yl)-3,4-dihydroisoquinoline-2(1H)-sulfonamide] | 4.22 | 7.66 | > 10 | 
4 | Cn1nccc1-c1cc(C(F)(F)F)ccc1-c1cccc2c1CCN(S(=O)(=O)Nc1ncccn1)C2 [Example 49, 5-(2-(1-Methyl-1H-pyrazol-5-yl)-4-(trifluoromethyl)phenyl)-N-(pyrimidin-2-yl)-3,4-dihydroisoquinoline-2(1H)-sulfonamide] | 12.7 | 14.6 |  | > 10
5 | O=S(=O)(Nc1cnccn1)N1CCc2c(cccc2-c2ccc(C(F)(F)F)cc2C2=CCNCC2)C1 [Example 53, N-(Pyrazin-2-yl)-5-(2-(1,2,3,6-tetrahydropyridin-4-yl)-4-(trifluoromethyl)phenyl)-3,4-dihydroisoquinoline-2(1H)-sulfonamide hydrochloride] | 10.5 |  | > 10 | 
6 | O=S(=O)(Nc1ccncn1)N1CCc2c(cccc2-c2ccc(C(F)(F)F)cc2Br)C1 [Example 56, 5-(2-Bromo-4-(trifluoromethyl)phenyl)-N-(pyrimidin-4-yl)-3,4-dihydroisoquinoline-2(1H)-sulfonamide] | 38.9 | > 10 |  | > 10
7 | CC(C)(C)OC(=O)N1CCc2c(cccc2-c2cccc3c2CCN(S(=O)(=O)Nc2ncns2)C3)C1 [Example 58, tert-Butyl 2′-(N-(1,2,4-thiadiazol-5-yl)sulfamoyl)-1′,2′,3,3′,4,4′-hexahydro-[5,5′-biisoquinoline]-2(1H)-carboxylate] | 15.8 | 16.5 |  | > 10
8 | COc1cc(C(F)(F)F)ccc1-c1ncnc2c1CCN(S(=O)(=O)Nc1nccs1)C2 [Example 59, 4-(2-methoxy-4-(trifluoromethyl)phenyl)-N-(thiazol-2-yl)-5,6-dihydropyrido[3,4-d]pyrimidine-7(8H)-sulfonamide] | 0.087 | 1.05 |  | > 10
9 | COc1cc(C(F)(F)F)ccc1-c1ncnc2c1CCN(S(=O)(=O)Nc1ncns1)C2 [Example 61, 4-(2-methoxy-4-(trifluoromethyl)phenyl)-N-(1,2,4-thiadiazol-5-yl)-5,6-dihydropyrido[3,4-d]pyrimidine-7(8H)-sulfonamide] | 0.141 | 1.21 |  | > 10
